Source: ChEMBL document CHEMBL4613237, “A novel phytosterol isolated from Datura inoxia, RinoxiaB is a potential cure colon cancer agent by targeting BAX/Bcl2 pathway” (Bioorg Med Chem, 2020)
The source made the active and inactive calls. The rule behind the calls is not given here.

Tests used:
[1] = system: HCT-15; assay: Induction of apoptosis in human HCT15 cells assessed as early apoptotic cells at 10 uM after 24 hrs by annexin V-FITC and propidium iodide staining based flow cytometry (reference value: 0%); assay type: functional
[2] = system: HCT-15; assay: Induction of DNA damage in human HCT15 cells assessed as head length at 10 uM by neutral comet assay (reference value: 53 pixel); assay type: functional
[3] = system: HCT-15; assay: Induction of DNA damage in human HCT15 cells assessed as tail DNA at 4 uM by neutral comet assay relative to control (reference value: 0.72%); assay type: functional
[4] = system: HCT-15; assay: Induction of DNA damage in human HCT15 cells assessed as tail moment at 10 uM by neutral comet assay (reference value: 0.02); assay type: functional
[5] = system: HCT-15; assay: Induction of morphological changes in human HCT15 cells assessed as formation of spherical bodies at 4 to 10 uM after 24 hrs by inverted light microscopic analysis; assay type: functional, cell-based
[6] = system: HCT-15; assay: Induction of cell cycle arrest in human HCT15 cells assessed as accumulation of cells at G0/G1 phase at 4 uM after 24 hrs by propidium iodide staining based flow cytometry (reference value: 77.48%); assay type: functional
[7] = system: HCT-15; assay: Induction of apoptosis in human HCT15 cells assessed as increase in cytochrome c protein expression at 4 to 10 uM after 24 hrs by Western blot analysis; assay type: functional, cell-based
[8] = system: HCT-15; assay: Induction of DNA damage in human HCT15 cells assessed as olive tail moment at 4 uM by neutral comet assay (reference value: 0.19); assay type: functional
[9] = system: HCT-15; assay: Induction of apoptosis in human HCT15 cells assessed as necrotic cells at 4 uM after 24 hrs by annexin V-FITC and propidium iodide staining based flow cytometry (reference value: 0.07%); assay type: functional
[10] = system: HCT-15; assay: Induction of morphological changes in human HCT15 cells assessed as membrane blebbing at 4 to 10 uM after 24 hrs by inverted light microscopic analysis; assay type: functional, cell-based
[11] = system: HCT-15; assay: Antiproliferative activity against human HCT15 cells assessed as reduction in cell viability after 24 hrs by MTT assay; assay type: functional, cell-based
[12] = system: HCT-15; assay: Induction of apoptosis in human HCT15 cells assessed as viable cells at 4 uM after 24 hrs by annexin V-FITC and propidium iodide staining based flow cytometry (reference value: 99.93%); assay type: functional; conditions: HCT-15, 24 h, read-out: Activity
[13] = system: HCT-15; assay: Induction of apoptosis in human HCT15 cells assessed as early apoptotic cells at 4 uM after 24 hrs by annexin V-FITC and propidium iodide staining based flow cytometry (reference value: 0%); assay type: functional
[14] = system: HCT-15; assay: Induction of DNA damage in human HCT15 cells assessed as tail DNA at 10 uM by neutral comet assay relative to control (reference value: 0.72%); assay type: functional
[15] = system: HCT-15; assay: Induction of DNA damage in human HCT15 cells assessed as head DNA at 10 uM by neutral comet assay relative to control (reference value: 99.27%); assay type: functional
[16] = system: HCT-15; assay: Induction of cell cycle arrest in human HCT15 cells assessed as accumulation of cells at S phase at 4 uM after 24 hrs by propidium iodide staining based flow cytometry (reference value: 8.73%); assay type: functional
[17] = system: HCT-15; assay: Induction of apoptosis in human HCT15 cells assessed as late apoptotic cells at 4 uM after 24 hrs by annexin V-FITC and propidium iodide staining based flow cytometry (reference value: 0%); assay type: functional
[18] = system: HCT-15; assay: Induction of apoptosis in human HCT15 cells assessed as upregulation of p53 protein expression after 24 hrs by Western blot analysis; assay type: functional, cell-based
[19] = system: HCT-15; assay: Downregulation of cyclin D1 expression in human HCT15 cells at 4 to 10 uM after 24 hrs by Western blot anlaysis; assay type: functional, cell-based
[20] = system: HCT-15; assay: Induction of DNA damage in human HCT15 cells assessed as tail moment at 4 uM by neutral comet assay (reference value: 0.02); assay type: functional
[21] = system: HCT-15; assay: Induction of apoptosis in human HCT15 cells assessed as reduction in bcl-2 protein expression at 4 to 10 uM after 24 hrs by Western blot analysis; assay type: functional, cell-based
[22] = system: HCT-15; assay: Induction of apoptosis in human HCT15 cells assessed as increase in caspase-3 protein expression at 4 to 10 uM after 24 hrs by Western blot analysis; assay type: functional, cell-based
[23] = system: HCT-15; assay: Induction of DNA damage in human HCT15 cells assessed as comet length at 10 uM by neutral comet assay (reference value: 57 pixel); assay type: functional
[24] = system: HCT-15; assay: Induction of apoptosis in human HCT15 cells assessed as increase in caspase-9 protein expression at 4 to 10 uM after 24 hrs by Western blot analysis; assay type: functional, cell-based
[25] = system: HCT-15; assay: Induction of DNA damage in human HCT15 cells assessed as head length at 4 uM by neutral comet assay (reference value: 53 pixel); assay type: functional
[26] = system: HCT-15; assay: Induction of apoptosis in human HCT15 cells assessed as increase in bax protein expression at 4 to 10 uM after 24 hrs by Western blot analysis; assay type: functional, cell-based
[27] = system: HCT-15; assay: Downregulation of cyclin B1 expression in human HCT15 cells at 4 to 10 uM after 24 hrs by Western blot anlaysis; assay type: functional, cell-based
[28] = system: HCT-15; assay: Induction of apoptosis in human HCT15 cells assessed as viable cells at 10 uM after 24 hrs by annexin V-FITC and propidium iodide staining based flow cytometry (reference value: 99.93%); assay type: functional; conditions: HCT-15, 24 h, read-out: Activity
[29] = system: HCT-15; assay: Induction of DNA damage in human HCT15 cells assessed as tail length at 10 uM by neutral comet assay (reference value: 4 pixel); assay type: functional
[30] = system: HCT-15; assay: Induction of cell cycle arrest in human HCT15 cells assessed as accumulation of cells at G2/M phase at 10 uM after 24 hrs by propidium iodide staining based flow cytometry (reference value: 13.77%); assay type: functional
[31] = system: HCT-15; assay: Induction of cell cycle arrest in human HCT15 cells assessed as accumulation of cells at S phase at 10 uM after 24 hrs by propidium iodide staining based flow cytometry (reference value: 8.73%); assay type: functional
[32] = system: HCT-15; assay: Induction of DNA damage in human HCT15 cells assessed as olive tail moment at 10 uM by neutral comet assay (reference value: 0.19); assay type: functional
[33] = system: HCT-15; assay: Antiproliferative activity against human HCT15 cells at 4 uM after 24 hrs by MTT assay relative to control; assay type: functional; conditions: HCT-15, 24 h
[34] = system: HCT-15; assay: Induction of apoptosis in human HCT15 cells assessed as late apoptotic cells at 10 uM after 24 hrs by annexin V-FITC and propidium iodide staining based flow cytometry (reference value: 0%); assay type: functional
[35] = system: HCT-15; assay: Induction of nuclear morphological changes in human HCT15 cells assessed as increase in propidium iodide positive cells at 4 to 10 uM after 24 hrs by PI-staining based fluorescence microscopic analysis; assay type: functional, cell-based
[36] = system: HCT-15; assay: Induction of cell cycle arrest in human HCT15 cells assessed as accumulation of cells at G0/G1 phase at 10 uM after 24 hrs by propidium iodide staining based flow cytometry (reference value: 77.48%); assay type: functional
[37] = system: HCT-15; assay: Induction of morphological changes in human HCT15 cells assessed as lack of colony forming ability at 4 to 10 uM after 24 hrs by inverted light microscopic analysis; assay type: functional, cell-based
[38] = system: HCT-15; assay: Induction of DNA damage in human HCT15 cells assessed as head DNA at 4 uM by neutral comet assay relative to control (reference value: 99.27%); assay type: functional
[39] = system: HCT-15; assay: Induction of morphological changes in human HCT15 cells assessed as cell shrinkage after 24 hrs by inverted light microscopic analysis; assay type: functional, cell-based
[40] = system: HCT-15; assay: Induction of apoptosis in human HCT15 cells assessed as upregulation of p21 protein expression after 24 hrs by Western blot analysis; assay type: functional, cell-based
[41] = system: HCT-15; assay: Induction of DNA damage in human HCT15 cells assessed as tail length at 4 uM by neutral comet assay (reference value: 4 pixel); assay type: functional
[42] = system: HCT-15; assay: Induction of apoptosis in human HCT15 cells assessed as necrotic cells at 10 uM after 24 hrs by annexin V-FITC and propidium iodide staining based flow cytometry (reference value: 0.07%); assay type: functional
[43] = system: HCT-15; assay: Induction of cell cycle arrest in human HCT15 cells assessed as accumulation of cells at G2/M phase at 4 uM after 24 hrs by propidium iodide staining based flow cytometry (reference value: 13.77%); assay type: functional
[44] = system: HCT-15; assay: Induction of DNA damage in human HCT15 cells assessed as comet length at 4 uM by neutral comet assay (reference value: 57 pixel); assay type: functional

Work on `C[C@H]1C(=O)O[C@H]2C[C@]1(C)OC[C@H]2[C@H]1CC[C@H]2[C@@H]3CC=C4CC=CC(=O)[C@]4(C)[C@H]3CC[C@]12C` yielded an Activity [1] of 19.48%, an Activity [2] of 19 pixel and an Activity [3] of 45.27%. For the same compound, the Activity [4] was 11.12, the Activity [5] was “Active” and the Activity [6] was 66.97%. For the same compound, the Activity [7] was “Active”, the Activity [8] was 5.56 and the Activity [9] was 2.1%. The Activity [10] was “Active”, the inhibition [11] was “Dose-dependent effect” and the IC50 ([11]; HCT-15, 24 h) was 4 µM. The viability at 4 µM [12] was 21.9%, the Activity [13] was 17.79% and the Activity [14] was 65.45%. The Activity [15] was 34.54%, the Activity [16] was 13.34% and the Activity [17] was 58.17%. For the same compound, the Activity [18] was “Dose-dependent effect”, the inhibition [19] was “Active” and the Activity [20] was 5.43. The Activity [21] was “Active”, the Activity [22] was “Active” and the Activity [23] was 36 pixel. For the same compound, the Activity [24] was “Active”, the Activity [25] was 23 pixel and the Activity [26] was “Active”. The inhibition [27] was “Active”, the viability at 10 µM [28] was 14.7% and the Activity [29] was 17 pixel. It also gave an Activity [30] of 21.57%, an Activity [31] of 16.46% and an Activity [32] of 8.56. For the same compound, the inhibition at 4 µM [33] was 50.7%, the Activity [34] was 63.26% and the Activity [35] was “Active”. For the same compound, the Activity [36] was 61.24%, the Activity [37] was “Active” and the Activity [38] was 54.72%. The Activity [39] was “Dose-dependent effect”, the Activity [40] was “Dose-dependent effect” and the Activity [41] was 12 pixel. For the same compound, the Activity [42] was 2.57%, the Activity [43] was 19.67% and the Activity [44] was 35 pixel.
